From article PMC11513923, “Discovery of ZLC491 as a Potent, Selective, and Orally Bioavailable CDK12/13 PROTAC Degrader” (Journal of Medicinal Chemistry, 2024) come the findings set out here.

Where only a bound is given, the exact number is not on record here.

For orientation: IC50 means the concentration needed to halve the response being measured. In general, DC50 refers to the concentration giving 50% degradation.

Format in all cases: cell-based
The subject of one test is MCF 10A cells. Kind of test: Cell proliferation assay (CCK-8). To be noted: Homo sapiens, 120 h, 5 days, noncancerous mammary epithelial cells. On the procedure: (§1) (A) Transcription level of DDR genes in MDA-MB-231 cells determined by RT-qPCR upon the treatment with vehicle or ZLC491 at different doses for 12 h, ROR1 was used as a negative control; (B) immunoblotting of DDR proteins in MDA-MB-231 cells after the treatment of ZLC491 at different doses for 48 h; (C) cell antiproliferative activity of ZLC491 in multiple TNBC cells as well as several noncancerous cells. Cells were treated with the compound for 5 days; (D,E) antiproliferative potency of cisplatin or olaparib alone or combined with ZLC491 at different doses in MDA-MB-231 cells for 5 days. Data are plotted using the percentage of absorbance relative to DMSO controls. (F) IC50 values and combination index (CI) in drug combination assay. In this model, CI scores estimate the interaction between the two drugs. If CI < 1, the drugs have a synergistic effect and if CI > 1, the drugs have an antagonistic effect. CI = 1 means the drugs have an additive effect. ^aThe drug combination in the table refers to the starting concentration of the two combined drugs, that would both go through serial dilution when treating cells.
(§2) TNBC cell lines MDA-MB-231, MDA-MB-436 and HCC38, human embryonic kidney cell line HEK 293 and human embryonic lung cell line MRC-5 were purchased from American Type Culture Collection (ATCC). Human mammary epithelial cell line MCF 10A was obtained from Chinese Academy of Sciences National Collection of Authenticated Cell Cultures. MDA-MB-231 was maintained in Leibovitz’ s L-15 medium (Gibco) supplemented with 10% fetal bovine serum (FBS; Excell Bio) and 1% penicillin/streptomycin (P/S; Gibco) at 37 °C in a humidified chamber of 100% air atmosphere. MDA-MB-436 and HCC38 were developed in Dulbecco’s modified Eagle medium (DMEM; Gibco) and RPMI-1640 medium (Gibco), respectively, both supplemented with 10% FBS (Excell Bio) and 1% P/S (Gibco), using a 37 °C constant temperature incubator with 5% CO2. HEK 293 and MRC-5 were cultured in the same condition with Eagle’s minimum essential medium (EMEM; Wisent). MCF 10A was grown in Mammary Epithelial Cell Growth Medium BulletKit (Lonza) at 37 °C in a humidified chamber with 5% CO2.
(§3) Tested cells were plated in 96-well or 384-well plates and incubated at 37 °C with or without 5% CO2. After overnight incubation, serial dilutions of compounds were added to the plate. Cell proliferation was measured 5 days after compound treatment using Cell Counting Kit-8 (Selleck) according to the manufacturer’s instructions.

Another test concerns MRC-5 cells. Kind of test: Cell proliferation assay (CCK-8). The note with it: Homo sapiens, MRC5, 120 h; 5 days, noncancerous embryonic lung cells. On the procedure:
as §1, §2, §3

In a further test the test system is HEK 293 cells. Kind of test: Cell proliferation assay (CCK-8). To be noted: Homo sapiens, HEK293, 120 h; 5 days, noncancerous embryonic kidney cells. On the procedure:
as §1, §2, §3

The subject of the next test is HCC38 cells. Kind of test: Cell proliferation assay (CCK-8). The note with it: Homo sapiens, HCC38, 120 h; 5 days. On the procedure:
as §1, §2, §3

The test system of a further test is MDA-MB-436 cells. Kind of test: Cell proliferation assay (CCK-8). The note with it: Homo sapiens, MDA-MB-436, 120 h; 5 days. On the procedure:
as §1, §2, §3

The subject of the next test is MDA-MB-231 cells. Kind of test: Cell proliferation assay (CCK-8). The note with it: Homo sapiens, MDA-MB-231, 120 h; 5 days. On the procedure:
as §1, §2, §3

A further test addresses T1, CDK13 (Homo sapiens, UniProt Q14004).
T1 construct: Immunoblotting of CDK12 and CDK13 in MDA-MB-231 cells treated with increasing concentrations of ZLC491 for 15 h; endogenous in cells; host or cells: MDA-MB-231
Kind of test: CDK13 degradation in MDA-MB-231 cells by immunoblotting.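 For Protein Degradation (%DMSO control, 0.3 μM) CDK13: percent of CDK13 protein degraded relative to DMSO control.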 The procedure, abridged:
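MDA-MB-231 cells treated with ZLC491 at increasing concentrations for 15 h (screening at 0.3 μM; time course at 1 μM); SDS lysates immunoblotted, band intensities normalised to α-tubulin. DC50 taken from percent remaining protein versus concentration; representative of three independent experiments.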

T1 sequence (Q14004 whole entry): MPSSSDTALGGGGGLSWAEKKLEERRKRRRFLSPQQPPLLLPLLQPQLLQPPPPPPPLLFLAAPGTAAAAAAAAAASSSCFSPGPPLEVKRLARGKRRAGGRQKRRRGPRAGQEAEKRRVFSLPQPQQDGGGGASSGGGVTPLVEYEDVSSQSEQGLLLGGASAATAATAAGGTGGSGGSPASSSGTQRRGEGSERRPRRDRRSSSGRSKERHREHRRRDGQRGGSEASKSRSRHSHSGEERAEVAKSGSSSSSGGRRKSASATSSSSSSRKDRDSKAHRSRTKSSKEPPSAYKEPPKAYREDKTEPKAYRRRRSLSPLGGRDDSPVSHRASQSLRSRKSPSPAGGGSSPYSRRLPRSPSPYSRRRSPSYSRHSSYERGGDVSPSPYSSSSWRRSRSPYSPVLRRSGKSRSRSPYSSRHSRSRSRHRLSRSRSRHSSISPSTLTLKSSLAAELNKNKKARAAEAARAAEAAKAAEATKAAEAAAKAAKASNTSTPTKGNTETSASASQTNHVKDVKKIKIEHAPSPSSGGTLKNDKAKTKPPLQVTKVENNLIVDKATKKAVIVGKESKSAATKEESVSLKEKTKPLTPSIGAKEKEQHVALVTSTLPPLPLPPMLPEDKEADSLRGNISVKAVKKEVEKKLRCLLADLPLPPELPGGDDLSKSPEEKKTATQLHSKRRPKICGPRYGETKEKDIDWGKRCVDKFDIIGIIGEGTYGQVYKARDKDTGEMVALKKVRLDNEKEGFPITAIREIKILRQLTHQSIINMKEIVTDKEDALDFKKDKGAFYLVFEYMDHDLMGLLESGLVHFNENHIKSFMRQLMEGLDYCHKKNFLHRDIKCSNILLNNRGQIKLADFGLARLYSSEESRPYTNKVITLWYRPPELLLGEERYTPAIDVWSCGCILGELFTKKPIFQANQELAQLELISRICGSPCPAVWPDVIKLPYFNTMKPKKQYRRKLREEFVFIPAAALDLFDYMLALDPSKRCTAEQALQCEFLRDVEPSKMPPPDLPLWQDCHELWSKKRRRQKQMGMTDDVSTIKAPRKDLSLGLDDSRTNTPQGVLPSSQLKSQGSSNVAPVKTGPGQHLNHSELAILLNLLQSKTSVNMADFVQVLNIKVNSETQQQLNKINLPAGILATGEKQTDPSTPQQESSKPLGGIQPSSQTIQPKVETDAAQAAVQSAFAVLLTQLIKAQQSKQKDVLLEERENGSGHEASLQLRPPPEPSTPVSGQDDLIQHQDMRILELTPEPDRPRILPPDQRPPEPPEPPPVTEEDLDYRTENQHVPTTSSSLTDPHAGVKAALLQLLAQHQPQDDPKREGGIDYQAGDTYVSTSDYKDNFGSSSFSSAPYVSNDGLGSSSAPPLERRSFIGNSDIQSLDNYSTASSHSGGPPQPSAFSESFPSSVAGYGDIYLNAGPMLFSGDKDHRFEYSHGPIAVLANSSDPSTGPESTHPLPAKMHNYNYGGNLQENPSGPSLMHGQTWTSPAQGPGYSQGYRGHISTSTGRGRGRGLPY
T1 sequence (O75909 whole entry partner): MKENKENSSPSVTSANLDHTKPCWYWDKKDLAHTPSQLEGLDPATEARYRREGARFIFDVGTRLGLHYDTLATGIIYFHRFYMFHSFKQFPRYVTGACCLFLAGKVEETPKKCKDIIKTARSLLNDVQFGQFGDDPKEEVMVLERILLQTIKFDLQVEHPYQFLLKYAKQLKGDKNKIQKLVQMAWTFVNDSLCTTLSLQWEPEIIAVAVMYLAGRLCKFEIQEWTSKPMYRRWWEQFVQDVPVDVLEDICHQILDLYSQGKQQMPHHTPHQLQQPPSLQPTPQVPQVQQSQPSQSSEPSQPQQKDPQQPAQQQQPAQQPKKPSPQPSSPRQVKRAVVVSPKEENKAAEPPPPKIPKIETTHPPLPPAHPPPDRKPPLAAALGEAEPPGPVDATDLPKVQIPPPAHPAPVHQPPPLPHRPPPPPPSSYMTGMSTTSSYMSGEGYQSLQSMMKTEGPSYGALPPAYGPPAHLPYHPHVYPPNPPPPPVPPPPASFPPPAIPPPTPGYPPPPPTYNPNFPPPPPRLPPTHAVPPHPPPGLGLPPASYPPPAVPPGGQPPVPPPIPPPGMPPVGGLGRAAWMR

With `N#Cc1ccc(N[C@H]2CC[C@H](N(C(=O)NCc3ccccc3)c3ccc(N4CCN(C5CCN(c6cc7c(cc6F)C(=O)N(C6CCC(=O)NC6=O)C7=O)CC5)CC4)cc3)CC2)nc1` (stereo partly shown) [ZLC491, 3-Benzyl-1-((1r,4r)-4-((5-cyanopyridin-2-yl)amino)cyclohexyl)-1-(4-(4-(1-(2-(2,6-dioxopiperidin-3-yl)-6-fluoro-1,3-dioxoisoindolin-5-yl)piperidin-4-yl)piperazin-1-yl)phenyl)urea], the concentration for half-maximal inhibition (IC50) with MCF 10A cells was more than 10000 nM; in the test on MRC-5 cells, more than 10000 nM; in the test with HEK 293 cells, more than 10000 nM; in the test on HCC38 cells it was 190 nM; in the test with MDA-MB-436 cells it was 120 nM; with MDA-MB-231 cells it was 620 nM. In addition, at CDK13 (2 μM, 8 h, MDA-MB-231), the “CDK13 degradation, immunoblotting of the proteomic samples” value is given as “significantly degraded”. The “Protein Degradation (%DMSO control, 0.3 μM) CDK13” value at CDK13 (MDA-MB-231 cells, 0.3 μM, 15 h, immunoblotting, normalized against α-tubulin) turned out to be 90%. At CDK13 (MDA-MB-231 cells, 15 h), this compound gave a half-maximal degradation concentration (DC50) of 28 nM. At CDK13 (supplementary CSV, 0.3 μM), this compound came in with a Degradation rates of CDK13 at 0.3 μM of 90%.
